For assay [1], the target named is Protein farnesyltransferase/geranylgeranyltransferase type-1 subunit alpha / Protein farnesyltransferase subunit beta (Plasmodium falciparum, UniProt Q5EI73+Q5EI74). Nature of the assay: PfPFT and Rat PFT IC50 Determination. Conditions: pH 7.5; 37 °C. How it is done: (§1) Assays for PFT activity were performed with a PFT-specific scintillation assay (SPA) kit (Amersham Biosciences, Piscataway, NJ). IC50 values were calculated using linear regression analysis of the plots of [3H] farnesyl pyrophosphate (FPP) prenylation versus concentration of compounds.

Assay [2] has as its target Protein farnesyltransferase/geranylgeranyltransferase type-1 subunit alpha (Rattus norvegicus, UniProt Q04631). Nature of the assay: PfPFT and Rat PFT IC50 Determination. As to the method:
as §1

IC50 data for three compounds are collected here from BindingDB's records for doi:10.1021/jm0491039 (University of Washington At Seattle, 2005).

pIC50: −log10 of the molar value.

Chain of Protein farnesyltransferase/geranylgeranyltransferase type-1 subunit alpha / Protein farnesyltransferase subunit beta (Q5EI73 1-521): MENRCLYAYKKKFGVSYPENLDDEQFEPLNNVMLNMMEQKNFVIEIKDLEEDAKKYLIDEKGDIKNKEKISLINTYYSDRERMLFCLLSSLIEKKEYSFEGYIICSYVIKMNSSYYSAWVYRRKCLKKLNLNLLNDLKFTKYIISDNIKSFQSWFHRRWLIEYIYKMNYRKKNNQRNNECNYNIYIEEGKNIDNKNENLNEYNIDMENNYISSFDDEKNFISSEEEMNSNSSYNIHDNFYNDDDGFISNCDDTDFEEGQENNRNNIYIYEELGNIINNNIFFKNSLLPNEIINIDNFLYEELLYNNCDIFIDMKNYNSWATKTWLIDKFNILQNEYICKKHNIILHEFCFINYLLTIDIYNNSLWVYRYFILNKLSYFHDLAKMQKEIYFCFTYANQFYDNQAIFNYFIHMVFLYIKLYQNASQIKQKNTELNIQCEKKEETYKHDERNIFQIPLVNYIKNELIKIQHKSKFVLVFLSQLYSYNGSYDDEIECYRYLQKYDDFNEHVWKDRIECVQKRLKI
Chain of Protein farnesyltransferase/geranylgeranyltransferase type-1 subunit alpha / Protein farnesyltransferase subunit beta (Q5EI74 1-923): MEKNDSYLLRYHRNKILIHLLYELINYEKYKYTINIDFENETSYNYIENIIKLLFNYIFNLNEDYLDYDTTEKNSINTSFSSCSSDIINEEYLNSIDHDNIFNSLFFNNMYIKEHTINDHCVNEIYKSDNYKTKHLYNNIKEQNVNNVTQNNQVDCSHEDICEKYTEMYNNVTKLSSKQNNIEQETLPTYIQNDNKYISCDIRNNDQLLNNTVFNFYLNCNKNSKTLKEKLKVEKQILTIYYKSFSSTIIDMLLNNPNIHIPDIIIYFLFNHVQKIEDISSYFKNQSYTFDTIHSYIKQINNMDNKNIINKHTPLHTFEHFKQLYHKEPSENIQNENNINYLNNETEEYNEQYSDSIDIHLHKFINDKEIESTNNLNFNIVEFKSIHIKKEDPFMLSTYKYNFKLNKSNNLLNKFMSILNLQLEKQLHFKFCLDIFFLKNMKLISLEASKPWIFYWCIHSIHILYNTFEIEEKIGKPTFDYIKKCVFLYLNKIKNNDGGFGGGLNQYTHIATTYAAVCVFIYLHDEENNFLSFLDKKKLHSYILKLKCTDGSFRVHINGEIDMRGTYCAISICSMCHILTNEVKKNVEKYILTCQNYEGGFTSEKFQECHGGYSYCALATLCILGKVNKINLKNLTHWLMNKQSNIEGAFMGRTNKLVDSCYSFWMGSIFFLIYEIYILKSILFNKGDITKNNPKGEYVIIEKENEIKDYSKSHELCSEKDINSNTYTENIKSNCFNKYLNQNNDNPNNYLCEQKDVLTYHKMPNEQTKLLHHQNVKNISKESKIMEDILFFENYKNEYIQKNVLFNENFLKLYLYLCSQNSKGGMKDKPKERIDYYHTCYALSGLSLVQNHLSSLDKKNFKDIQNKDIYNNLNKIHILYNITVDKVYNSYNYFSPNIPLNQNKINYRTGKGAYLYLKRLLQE

By pIC50 is commonly meant −log10 of the IC50, conventionally taken in molar units. Higher therefore signals a small IC50. For `[C-]#[N+]c1ccc2c(c1)CC(N(CC(=O)NC(C)(C)C)S(=O)(=O)c1cccnc1)CN2Cc1cncn1C` (stereo unspecified) [N-tert-Butyl-2-[[6-isocyano-1-(3-methyl-3H-imidazol-4-ylmethyl)-1,2,3,4-tetrahydroquinolin-3-yl]-(pyridine-3-sulfonyl)amino]acetamide], the negative logarithm of the IC50 (pIC50) in assay [1] is 7.60; in assay [2] it was 8.22.

On to `[C-]#[N+]c1ccc2c(c1)CC(N(CC(=O)NC(C)(C)C)S(=O)(=O)c1ccncc1)CN2Cc1cncn1C` (stereo unspecified) [N-tert-Butyl-2-[[6-isocyano-1-(3-methyl-3H-imidazol-4-ylmethyl)-1,2,3,4-tetrahydroquinolin-3-yl]-(pyridine-4-sulfonyl)amino]acetamide], for which the results for the pIC50 in assay [1] and in assay [2] were 6.00 and 6.80, respectively.

For the compound `[C-]#[N+]c1ccc2c(c1)CC(N(CC(=O)NC(C)(C)C)S(=O)(=O)c1ccccn1)CN2Cc1cncn1C` (stereo unspecified) [N-tert-butyl-2-({6-isocyano-1-[(1-methyl-1H-imidazol-5-yl)methyl]-1,2,3,4-tetrahydroquinolin-3-yl}(pyridine-2-)sulfonamido)acetamide], the results for the pIC50 in assay [1] and in assay [2] were 8.85 and 8.74, respectively.
